Data published in US20230159484A1, “FLUORESCENT DYES HAVING HIGH STOKES SHIFT, ON THE BASIS OF BRIDGED BENZOPYRYLIUM SALTS” (DYOMICS GmbH, priority 2020, published 2023).

Columns and labels:
Type in all cases: physicochemical
[1] = UV-Vis absorption (absorption maximum, extinction coefficient)
Description: (§1) Depending on the basic structure and substitution, the absorption maxima lie in the entire range of visible light, with a focus at 500-530 nm. The compounds show a high Stokes shift in the range of 80 nm. The absorption is measured, for example, at 25° C. in aqueous or ethanolic solutions with an extinction of 1.0 using a Specord 205 from Analytik Jena, wherein the aqueous solutions are preferably phosphate-buffered salt solutions (PBS buffer; approx. 100 mM sodium chloride and 100 mM total phosphate) and have a pH of 7.5. For example, the emission is measured at 25° C. in dilute aqueous or ethanolic solutions with an extinction of 0.1 using a FP-6600 spectrofluorometer from Jasco, wherein the dilute aqueous solutions are preferably phosphate-buffered salt solutions (PBS buffer; about 100 mM sodium chloride and 100 mM total phosphate) and have a pH of 7.5.

[2] = Fluorescence emission (emission maximum)
Description: as §1

[3] = Fluorescence quantum yield
Description: Preferably, the fluorescence quantum yield of a compound according to the invention is 0.1 to 0.95, more preferably 0.5 to 0.9. Fluorescence quantum yields are preferably determined at 25° C. in dilute aqueous or ethanolic solutions with an extinction of 0.1 using a Hamamatsu Absolute Photoluminescence Quantum Yield Measurement System C-9920, wherein the dilute aqueous solutions are preferably phosphate-buffered salt solutions (PBS buffer; about 100 mM sodium chloride and 100 mM total phosphate) and have a pH of 7.5. The compounds thus complement the already commercially available dyes with high Stokes Shift or represent better fluorescent alternatives.

[4] = Fluorescence emission (emission maximum); remark: listed apart in the source

ε ([1]; UV-Vis in PBS)	λmax ([1]; UV-Vis in PBS)	ε ([1]; UV-Vis in ethanol)	λmax ([1]; UV-Vis in ethanol)	λem ([2]; in PBS)	λem ([2]; in ethanol)	QY ([3]; in PBS)	QY ([3]; in ethanol)	λmax ([1]; UV-Vis in buffer pH 9)	λem ([4]; in buffer pH 9)	ε ([1]; UV-Vis in buffer pH 5)	λmax ([1]; UV-Vis in buffer pH 5)	λem ([4]; in buffer pH 5)	SMILES
39,200 l/mol*cm	505 nm	32,500 l/mol*cm	510 nm	570 nm	575 nm	0.58	0.82						CCN(CC)c1ccc2cc3c([o+]c2c1)C=C(NCCCCCC(=O)O)CC3(C)C.[Cl-] [Compound 3, 6-[[6-(diethylamino)-1,1-dimethyl-2H-xanthene-10-ium-3-yl]amino]hexanoic Acid Chloride Salt]
45,000 l/mol*cm	505 nm	49,800 l/mol*cm	512 nm	572 nm	570 nm	0.72	0.87						CC1(C)CC(NCCCS(=O)(=O)[O-])=Cc2[o+]c3cc(N(CCCCCC(=O)O)CCCS(=O)(=O)[O-])ccc3cc21.[Na+] [Compound 5, 3-[[6-[5-carboxypentyl(3-sulfonatopropyl)amino]-1,1-dimethyl-2H-xanthene-10-ium-3-yl]amino]propane-1-sulfonate Sodium Salt]
38,500 l/mol*cm	509 nm	41,600 l/mol*cm	511 nm	578 nm	571 nm	0.58	0.84						CCN(CCCCCC(=O)O)c1ccc2cc3c([o+]c2c1)C=C(NCCCS(=O)(=O)[O-])CC3(C)C [Compound 8, 3-[[6-[5-Carboxypentyl(ethyl)amino]-1,1-dimethyl-2H-xanthene-10-ium-3-yl]amino]propane-1-sulfonate]
39,000 l/mol*cm	523 nm	41,000 l/mol*cm	531 nm	600 nm	601 nm	0,24	0.47						CN(C1=Cc2[o+]c3cc(N(CCCCCC(=O)O)CCCS(=O)(=O)[O-])ccc3cc2C(C)(C)C1)c1ccccc1 [Compound 9, 3-[5-carboxypentyl-[8,8-dimethyl-6-(N-methylanilino)-7H-xanthene-10-ium-3-yl]amino]propane-1-sulfonate]
44,000 l/mol*cm	527 nm	48,000 l/mol*cm	533 nm	612 nm	609 nm	0.35	0.57						CN(C1=Cc2[o+]c3cc(N(CCCCCC(=O)O)CCCS(=O)(=O)[O-])ccc3cc2C(C)(C)C1)c1ccc(S(=O)(=O)[O-])cc1.[Na+] [Compound 10, 4-[[6-[5-carboxypentyl(3-sulfonatopropyl)amino]-1,1-dimethyl-2H-xanthene-10-ium-3-yl]-methyl-amino]benzenesulfonate sodium Salt]
39,000 l/mol*cm	526 nm	44,000 l/mol*cm	531 nm	606 nm	601 nm	0.27	0.42						CCN(CCCCCC(=O)O)c1ccc2cc3c([o+]c2c1)C=C(N(C)c1ccccc1)CC3(C)C.[Cl-] [Compound 11, 6-[[8,8-dimethyl-6-(N-methylanilino)-7H-xanthene-10-ium-3-yl]-ethyl-amino]hexanoic Acid Chloride Salt]
45,000 l/mol*cm	532 nm	50,000 l/mol*cm	533 nm	619 nm	610 nm	0.26	0.51						CCN(CCCCCC(=O)O)c1ccc2cc3c([o+]c2c1)C=C(N(C)c1ccc(S(=O)(=O)[O-])cc1)CC3(C)C [Compound 12, 4-[[6-[5-carboxypentyl(ethyl)amino]-1,1-dimethyl-2H-xanthene-10-ium-3-yl]-methyl-amino]benzenesulfonate]
40,100 l/mol*cm	545 nm	45,300 l/mol*cm	542 nm	625 nm	616 nm	0.11	0.61						CCN(CCCCCC(=O)O)c1ccc2cc3c([o+]c2c1)C(S(=O)(=O)[O-])=C(Nc1ccc(S(=O)(=O)[O-])cc1)CC3(C)C.[Na+] [Compound 14, 6-[5-carboxypentyl(ethyl)amino]-1,1-dimethyl-3-(4-sulfonatoanilino)-2H-xanthene-10-ium-4-sulfonate Sodium Salt]
45,400 l/mol*cm	527 nm	55,000 l/mol*cm	542 nm	600 nm	600 nm	0.58	0.88						CC1=CC(C)(C)N(CCCS(=O)(=O)[O-])c2cc3[o+]c4c(cc3cc21)C(C)(C)CC(N(C)CCCC(=O)O)=C4 [Compound 23, 3-[9-[3-carboxypropyl(methyl)amino]-2,2,4,7,7-pentamethyl-8H-chromeno[3,2-g]quinolin-11-ium-1-yl]propane-1-sulfonate]
30,100 l/mol*cm	482 nm	25,000 l/mol*cm	446 nm	565 nm	542 nm	0.66	0.90						CCN(CCCCCC(=O)O)c1ccc2c(c1)OC1=C(S(=O)(=O)[O-])C(=O)CC(C)(C)C1=C2.[Na+] [Compound 36, 6-[5-carboxypentyl(ethyl)amino]-1,1-dimethyl-3-oxo-2H-xanthene-4-sulfonate Sodium Salt]
28,000 l/mol*cm	479 nm	31,000 l/mol*cm	463 nm	557 nm	544 nm	0.78	0.91						CC1(C)CC(=O)C(S(=O)(=O)[O-])=C2Oc3cc(N(CCCCCC(=O)O)CCCS(=O)(=O)[O-])ccc3C=C21.[Na+].[Na+] [Compound 38, 6-[5-carboxypentyl(3-sulfonatopropyl)amino]-1,1-dimethyl-3-oxo-2H-xanthene-4-sulfonate di-sodium SALT]
	409 nm			485 nm				462 nm	536 nm				CC1(C)CC(=O)C(S(=O)(=O)[O-])=C2Oc3cc(O)ccc3C=C21.[Na+] [Compound 39, 6-hydroxy-1,1-dimethyl-3-oxo-2H-xanthene-4-sulfonate Sodium Salt]
13,000 l/mol*cm	472 nm			573 nm						13300 L/mol/cm	523 nm	600 nm	CCN(CCCCCC(=O)O)c1ccc2c(c1)OC1=C(c3ccncc3)C(=O)CC(C)(C)C1=C2 [Compound 44, 6-[[8,8-dimethyl-6-oxo-5-(4-pyridyl)-7H-xanthene-3-yl]-ethyl-amino]hexanoic Acid]
15000 L/mol/cm	470 nm			570 nm						15400 L/mol/cm	524 nm	594 nm	CC1(C)CC(=O)C(c2ccncc2)=C2Oc3cc(N(CCCCCC(=O)O)CCCS(=O)(=O)[O-])ccc3C=C21.[Na+] [Compound 45, 3-[5-carboxypentyl-[8,8-dimethyl-6-oxo-5-(4-pyridyl)-7H-xanthene-3-yl]amino]propane-1-sulfonate Sodium Salt]
		53,000 l/mol*cm	654 nm		712 nm								CCN(CCCCCC(=O)O)c1ccc2c(c1)OC1=Cc3[o+]c4cc(OC)ccc4cc3C(C)(C)C1=C2.[Cl-] [Compound 48, 6-[ethyl-(3-methoxy-13,13-dimethyl-chromeno[3,2-b]xanthene-5-ium-9-yl)amino]hexanoic Acid Chloride Salt]
